# According to patent US8933065B2, “N-benzylamide substituted derivatives of 2-(acylamido)acetic acid and 2-(acylamido)propionic acids: potent neurological agents” (The University of North Carolina at Chapel Hill, priority 2008, dated 2015):
# Where two headings read alike, the source gives them in different places.
# Tests used:
# [1] = tested on: maximal electroshock (MES)-induced seizures; experiment: Maximal electroshock seizure (MES) test, rat (po); format: in vivo; conditions: for MES, ED50: rat, time (h) in brackets, Table 2; for ED50: Rattus norvegicus
# Procedure: (§2) The maximal electroconvulsive shock (MES) test is regarded as a standard screen for anticonvulsant activity in terms of inhibition of seizure spread in generalized tonic-clonic seizures.
# (§3) Groups of at least 8 male albino CF No. 1 mice or male albino Sprague-Dawley rats are treated with 10 mL/kg i.p. or 4 mL/kg p.o. of the test compound solution, respectively. The electrical stimulus in the MES test is 50 mA at 60 Hz for mice and 150 mA at 60 Hz for rats, both delivered for 0.2 sec. Abolition of the hind leg tonic extensor component of the seizure is used as the endpoint.
# [2] = tested on: neurologic toxicity (rotorod test); experiment: Neurologic toxicity, rotorod test, mice (ip); format: in vivo; conditions: rotorod test
# Procedure: (§1) Tests are conducted in groups of at least 8 mice or rats to determine the intrinsic neurotoxicity (neuromuscular impairment) after administration of the test compound by the route of administration to be used in the pharmacology studies. Neurotoxicity is determined in male CF No 1 mice by the rotarod procedure. Inability of the mouse to maintain its equilibrium in 3 trials during 1 min on this rotating rod (6 rpm) is used as an indication of such impairment. In Sprague-Dawley rats, minimal motor impairment (MMI) is determined by overt evidence of ataxia, abnormal gait, and stance.
# 6 Hz seizures = experiment: 6 Hz seizure model, mice (ip); format: in vivo; conditions: for 6 Hz, ED50: mice, ip; for seizure activity in the 6 Hz seizure model assay: comparable to or exceeding phenyloin and phenobarbital
# behavioral toxicity [3] = experiment: Toxicity (behavioral toxicity), rat (po); format: in vivo
# Procedure: as §1
# [4] = tested on: maximal electroshock (MES)-induced seizures; experiment: Maximal electroshock seizure (MES) test, mice (ip); format: in vivo; conditions: mice, ip
# Procedure: as §2, §3
# [5] = tested on: maximal electroshock (MES)-induced seizures; conditions: rat, po; Table 3, Ref 16, 32; cited from earlier work
# [6] = tested on: maximal electroshock (MES)-induced seizures; conditions: mice, ip; Table 3, Ref 30, 16, 32; cited from earlier work
# behavioral toxicity [7] = conditions: rat, po; Table 3, Ref 16, 32; cited from earlier work
# [8] = tested on: hippocampal kindled seizures; experiment: Hippocampal kindling test, rats; format: in vivo; conditions: for Preliminary Hippocampal Kindling Test, After discharge duration, Drug / Preliminary Hippocampal Kindling Test, Seizure Score, Drug: rats; for Preliminary Hippocampal Kindling Test, Seizure Score, Drug: after drug (pre-drug score 4-5)
# Procedure: The kindling model provides a tool to predict a test compound's activity in complex partial seizures.
# Male albino Sprague-Dawley rats (n=8) are kindled to a Stage 5 behavioral seizure. They are treated with an appropriate i.p. dose of the test compound after a 1-week, stimulus-free period. The test compound is evaluated for its effect on kindled motor seizures (seizures scores of 4 and 5), limbic behavior seizures (seizure scores between 1 and 3) and after-discharge duration. After 15 min, each rat is stimulated every 30 min for 3-4 h. Following each stimulation, individual seizure scores and after-discharge duration are recorded. The group mean and standard error of the mean (SEM) are calculated for each parameter.
# [9] = tested on: neurologic toxicity (rotorod test); conditions: mice, ip, Table 3, Ref 30, 16, 32; cited from earlier work
# [10] = tested on: mechanical allodynia after partial sciatic nerve ligation; experiment: Partial sciatic nerve ligation model, rats (ip); format: in vivo; conditions: dose 12, p < 0.05
# [11] = behavioral toxicity, Table b607
# [12] = time (h) in brackets, (X′—Y′—Z′ group)
# [13] = time (h) in brackets, Table 2, footnotes not given
# [14] = read-out: MES, ED50, rat, po, Table 3
# [15] = time of peak effect (h) in brackets, Table 2
smiles,measurement,setting,value
"COC[C@@H](NC(C)=O)C(=O)NCc1ccc(OCc2cccc(F)c2)cc1 [(R)-10, (R)-2-Acetamido-N-(4-(3-fluorobenzyloxy)benzyl)-3-methoxypropanamide]","MES, ED50",[1],4.9 [1]
same,"Tox, TD50",[2]; Table 3,26 [0.5] milligrams per kilogram
same,"Tox, TD50",[2]; Table b607,26 [0.5] milligrams per kilogram
same,"Tox, TD50",[2]; Table b608,26 [0.5] milligrams per kilogram
same,"6 Hz, ED50",6 Hz seizures; Table 3,~10 [0.25] milligrams per kilogram
same,"6 Hz, ED50",6 Hz seizures; Table b607,~10 [0.25] milligrams per kilogram
same,"6 Hz, ED50",6 Hz seizures; Table b608,~10 [0.25] milligrams per kilogram
same,"Tox, TD50","behavioral toxicity [3]; behavioral toxicity, Table 3",>500 [0.5] milligrams per kilogram
same,"Tox, TD50",behavioral toxicity [3]; [11],>500 [0.5] milligrams per kilogram
same,"Tox, TD50","behavioral toxicity [3]; behavioral toxicity, Table b608",>500 [0.5] milligrams per kilogram
same,"Tox, TD50","behavioral toxicity [3]; time (h) in brackets, Table 2",> 280 mg/kg
same,"MES, ED50",[4]; [12],13 [0.25] milligrams per kilogram
same,"MES, ED50","[4]; time (h) in brackets, (terminal ring group)",13 [0.25] milligrams per kilogram
same,"MES, ED50","[4]; time (h) in brackets, Table 3, NINDS ASP",13 [0.25] milligrams per kilogram
CCCC(CCC)C(=O)O [valproate],"MES, ED50",[1],490 [0.5]
same,"MES, ED50",[5],490 [0.5] milligrams per kilogram
same,"MES, ED50",[6],270 [0.25] milligrams per kilogram
same,"MES, ED50",[4]; [13],270 [0.25]
"CC(=O)N[C@@H](C)C(=O)NCc1ccc(OCc2cccc(F)c2)cc1 [(S)-6, (S)—N-4-(3-Fluorobenzyloxy)benzyl 2-Acetamidopropionamide, reference compound]",ED50,[1]; [14],> 30 mg/kg
same,"Tox, TD50",[2]; Table 3,>300 [0.5] milligrams per kilogram
same,"Tox, TD50","behavioral toxicity [3]; behavioral toxicity, Table 3",>30 [0.25 to milligrams per kilogram
"CC(=O)NCC(=O)NCc1ccc(OCc2cccc(F)c2)cc1 [compound 5, N-4-(3-Fluorobenzyloxy)benzyl 2-Acetamidoacetamide]",ED50,[1]; [14],31 mg/kg
same,"Tox, TD50",[2]; Table 3,>300 [0.5 and 4.0] milligrams per kilogram
same,"Tox, TD50","behavioral toxicity [3]; behavioral toxicity, Table 3",>500 [1.0] milligrams per kilogram
"CCC1(c2ccccc2)C(=O)NC(=O)NC1=O [Phenobarbital, reference compound]","Tox, TD50",behavioral toxicity [7],61 [0.5] milligrams per kilogram
same,"MES, ED50",[4]; [13],22 [1]
C#CCOCC(NC(C)=O)C(=O)NCc1ccc(N=[N+]=[N-])cc1 (centres unmarked) [compound 8],seizure activity in the 6 Hz seizure model assay,6 Hz seizures,excellent seizure activity
C#CCOCC(NC(C)=O)C(=O)NCc1ccccc1 (centres unmarked) [compound 7],seizure activity in the 6 Hz seizure model assay,6 Hz seizures,excellent seizure activity
"COC[C@@H](NC(C)=O)C(=O)NCc1ccc(COCc2cccc(F)c2)cc1 [(R)-18, (R)—N-4-(((3-Fluoro)benzyloxy)methyl)benzyl 2-Acetamido-3-methoxypropionamide]",melting point,,140 to 142 °C
"COC[C@@H](NC(C)=O)C(=O)NCc1ccc(COc2cccc(F)c2)cc1 [(R)-16, (R)—N-4-((3-Fluorophenoxy)methyl)benzyl 2-Acetamido-3-methoxypropionamide]",ED50,"[1]; read-out: MES, ED50, rat, po",19 mg/kg
same,"Tox, TD50",[2]; Table b607,10 [0.25] milligrams per kilogram
same,"Tox, TD50",behavioral toxicity [3]; [11],>400 [0.5] milligrams per kilogram
same,"MES, ED50",[4]; [12],5.9 [0.25] milligrams per kilogram
"C#CCOC[C@@H](NC(C)=O)C(=O)NCc1ccc(N=[N+]=[N-])cc1 [(R)-8, (R)—N-(4-Azidobenzyl)-2-acetamido-3-(prop-2-ynyloxy)propanamide]",melting point,,135 to 136 °C
"COC[C@@H](NC(C)=O)C(=O)NCc1ccc(Oc2cccc(F)c2)cc1 [(R)-12, (R)—N-4′-((3″-Fluoro)phenoxy)benzyl 2-N-Acetamido-3-methoxypropionamide]",ED50,"[1]; read-out: MES, ED50, rat, po",< 10 mg/kg
same,"Tox, TD50",[2]; Table b607,23 [0.25] (18-28) milligrams per kilogram
same,"6 Hz, ED50",6 Hz seizures; Table b607,~10 [0.5] milligrams per kilogram
same,"Tox, TD50",behavioral toxicity [3]; [11],>10 [0.25-4.0] milligrams per kilogram
same,"MES, ED50",[4]; [12],5.5 [0.25] (3.2-6.3) milligrams per kilogram
"COC[C@@H](NC(C)=O)C(=O)NCc1ccc(/C=C/c2cccc(F)c2)cc1 [(R)-14, (2-R,E)-N-4-(3-Fluorostyryl)benzyl 2-Acetamido-3-methoxypropionamide]",ED50,"[1]; read-out: MES, ED50, rat, po",~30 mg/kg
same,"6 Hz, ED50",6 Hz seizures; Table b607,<30 [0.25] milligrams per kilogram
same,"Tox, TD50",behavioral toxicity [3]; [11],">30 [0.25, 4.0] milligrams per kilogram"
"O=C1NC(=O)C(c2ccccc2)(c2ccccc2)N1 [phenytoin, reference compound]","MES, ED50",[1],30 [4]
same,"MES, ED50",[5],30 [4.0] milligrams per kilogram
same,"Tox, TD50","behavioral toxicity [3]; time (h) in brackets, Table 2",^hNo ataxia observed up to 3000 mg/kg.
same,"Preliminary Hippocampal Kindling Test, After discharge duration, Drug",[8],51 s
same,"Preliminary Hippocampal Kindling Test, Seizure Score, Drug",[8],3
same,"Tox, TD50",[9],66 [2.0] milligrams per kilogram
"C#CCOC[C@H](NC(C)=O)C(=O)NCc1ccccc1 [(S)-7, (S)—N-Benzyl-2-acetamido-3-(prop-2-ynyloxy)propanamide]","Tox, TD50",[2]; [15],>300 mg/kg
same,"Tox, TD50","behavioral toxicity [3]; time (h) in brackets, Table 2",>30 mg/kg
same,melting point,,148.5 to 149 °C
C#CCOC[C@@H](NC(C)=O)C(=O)NCc1ccc(N=C=S)cc1,melting point,,157 to 159 °C
"C#CCOC[C@H](NC(C)=O)C(=O)NCc1ccc(N=[N+]=[N-])cc1 [(S)-8, (S)—N-(4-Azidobenzyl)-2-acetamido-3-(prop-2-ynyloxy)propanamide]","Tox, TD50",[2]; [15],>300 mg/kg
same,"Tox, TD50","behavioral toxicity [3]; time (h) in brackets, Table 2",>30 mg/kg
same,melting point,,135 to 136.5 °C
"CC(=O)N[C@@H](C)C(=O)NCc1ccccc1 [(S)-4, reference compound]","MES, ED50",[6],8.0 milligrams per kilogram
same,"MES, ED50","[4]; 95% confidence intervals in parentheses, Table 1",550 (460-740) mg/kg
"COC[C@@H](NC(C)=O)C(=O)NCc1ccc(OCc2cccc(F)c2)cc1 [(R)-3, (R)-2-Acetamido-N-(4-(3-fluorobenzyloxy)benzyl)-3-methoxypropanamide]",fold attentaution of mechanical allodynia at 1 h,[10],11.2 fold attentaution of mechanical
same,ED50,"[8]; Rattus norvegicus, ip, read-out: Hippocampal Kindled Rats (ip) ED50 (inteval)",12 mg/kg
same,"Preliminary Hippocampal Kindling Test, After discharge duration, Drug",[8],0 s
same,"Preliminary Hippocampal Kindling Test, Seizure Score, Drug",[8],0
same,ED50,"[4]; Mus musculus, time (h) in brackets, Table 2, footnotes not given",13 mg/kg
"C#CCOC[C@H](NC(C)=O)C(=O)NCc1ccc(N=C=S)cc1 [(S)-9, (S)—N-(4-Isothiocyanatobenzyl)-2-acetamido-3-(prop-2-ynyloxy)propanamide]","Tox, TD50",[2]; [15],>300 mg/kg
same,melting point,,157 to 158 °C
"C#CCOC[C@@H](NC(C)=O)C(=O)NCc1ccccc1 [(R)-7, (R)—N-Benzyl-2-acetamido-3-(prop-2-ynyloxy)propanamide]",melting point,,149 °C
